{"source": "patent US11926593B1", "about": "“6′-(3-bromophenyl)-2′-methoxy-3,4′-bipyridine-3′-carbonitrile as an antioxidant compound” (KING FAISAL UNIVERSITY, priority 2023, dated 2024)", "test": "DPPH radical scavenging antioxidant test", "format": "biochemical", "details": "517 nm; for Inhibition (radical scavenging inhibition): DPPH 0.2 mL (0.75 mM), compound 3 μM in ethanol, 30 minutes in the dark", "procedure": "The antioxidant activity of 6′-(3-bromophenyl)-2′-methoxy-3,4′-bipyridine-3′-carbonitrile was investigated by 2,2-diphenyl-1-picrylhydrazyl (DPPH) in vitro tests that employ vitamin C as the positive control.\nThe antioxidant properties of the 6′-(3-bromophenyl)-2′-methoxy-3,4′-bipyridine-3′-carbonitrile compound were studied by adding 0.2 mL DPPH (0.75 mM)) to 6′-(3-bromophenyl)-2′-methoxy-3,4′-bipyridine-3′-carbonitrile (3 μM) (4) in ethanol. After 30 minutes of incubation in the dark, the absorbance was read against a blank at 517 nm. Ascorbic acid (vitamin C) was used as standard antioxidants (positive control). A blank sample was prepared by 0.2 mL of DPPH in 3 mL ethanol. A negative control sample was run using ethanol instead of the sample. The radical scavenging inhibition was calculated using the following equation: […]\nThe antioxidant activity for the synthesized compound is listed in Table 1, using Vitamin C as a reference."}
{"smiles": "COc1nc(-c2cccc(Br)c2)cc(-c2cccnc2)c1C#N", "note": "[Product 4, 6′-(3-bromophenyl)-2′-methoxy-3,4′-bipyridine-3′-carbonitrile]", "values": [{"measurement": "Inhibition (radical scavenging inhibition)", "value": 50, "unit": "%"}, {"measurement": "antioxidant potential compared to vitamin C", "setting": "DPPH in vitro test, vitamin C as positive control", "value": "high potential as an antioxidant"}]}
{"smiles": "O=C1O[C@H]([C@@H](O)CO)C(O)=C1O", "note": "[vit c, Ascorbic acid, reference compound]", "values": [{"measurement": "Inhibition (radical scavenging inhibition)", "value": 74, "unit": "%"}]}
